Reference: patent US8039601B1, “Crystalline forms of 1,6-Bis [3-(3-carboxymethylphenyl)-4-(2-α-D-mannopyranosyloxy)-phenyl] hexane” (Revotar Biopharmaceuticals AG, priority 2006, dated 2011)
≈ marks a conversion by molar mass, not a printed value. Each block holds one molecule with its values, some of them ahead of it.

Key:
[1] = Thermodynamic solubility of the polymorphic forms in water (shake flask technique, UV); format: physicochemical; details: pure water, over night at 25° C., triplicate
Procedure: The thermodynamic solubility of FORM 1, FORM 2, and FORM 3 of 1,6-Bis [3-(3-carboxymethylphenyl)-4-(2-α-D-mannopyranosyloxy)-phenyl] hexane (compound of formula (I)) was determined in water by employing the shake flask technique. The sample was added to pure water in a Safelock-tube (Eppendorf, Germany) under vigorous shaking until a white precipitate was formed. The saturated solution was incubated over night at 25° C. in an Eppendorf Thermomixer operated at 700 RPM. The suspension was cleared by centrifugation at 13.000 RPM at room temperature, and the supernatant was carefully collected. The supernatant was further purified by vacuum-filtration through a Millipore solubility filter plate (Millipore, Molsheim, France).
The UV absorption of the filtrate was measured against pure water using a Spectramax250 (Molecular Devices, Sunnyvale, Calif.) operated with Softmax Pro v. 4.8 software, using the application “Mscreen solubility quantify” in the ADME package. The sample concentration was calculated using a 5-point linear calibration line of the compound of formula (I) in acetonitrile:pure water (1:1 vol:vol). Measurements have been performed in triplicate.

[2] = Thermodynamic solubility of the polymorphic forms in organic solvents (HPLC quantification); format: physicochemical
Procedure: The thermodynamic solubility of FORM 1, FORM 2, FORM 4, and FORM 6 of 1,6-Bis [3-(3-carboxymethylphenyl)-4-(2-α-D-mannopyranosyloxy)-phenyl] hexane (compound of formula (I)) was determined in several organic solvents by suspending sufficient compound to give a maximum final concentration. Quantification was by reverse phase HPLC with gradient solution with reference to a standard solution of FORM B of the compound of formula (I) at 0.25 mg/ml. The suspensions were equilibrated at 27° C. for 24 hours with shaking. All suspensions were filtered though a glass fibre C filter. The filtrate was then diluted by an appropriate factor in 50:50 ethanol:water apart from isopropyl myristate which was diluted in ethanol to avoid emulsion formation.
Solubilities were calculated using the peak areas determined by the peak found at the same retention time as the principal peak in the standard injection.

[3] = PEG 300, equilibrated at 27° C. for 24 hours with shaking
[4] = Triacetin, equilibrated at 27° C. for 24 hours with shaking
[5] = ethanol, equilibrated at 27° C. for 24 hours with shaking
[6] = equilibrated at 27° C. for 24 hours with shaking

- solubility ([1]; 25 °C, water, thermodynamic from solid): 22 µg/mL (≈ 0.0255 mM)
- Solubility ranking among the FORMS in PEG 300 (in words) ([2]; PEG 300, compared with other FORMS): highest solubility
- Solubility in PEG 300 (Polyethylene glycol 300) [2, 3]: 205 mg/mL (≈ 238 mM)
- Solubility ranking among the FORMS in Triacetin (in words) ([2]; Triacetin, compared with other FORMS): highest solubility
- Solubility in Triacetin (glycerin triacetate) [2, 4]: 0.056 mg/mL (≈ 0.0649 mM)
- Solubility in EtOH (Ethanol) [2, 5]: 4.2 mg/mL (≈ 4.87 mM)
- Solubility in IPA (Isopropyl alcohol) [2, 6]: 3.9 mg/mL (≈ 4.52 mM)
- solubility at 24 h ([2]; propylene glycol, 27 °C, organic solvent or mixture, thermodynamic from solid, equilibrated at 27° C. for 24 hours with shaking): 199 mg/mL (≈ 231 mM)
- Solubility ranking among the FORMS in propylene glycol (in words) ([2]; propylene glycol, compared with other FORMS): highest solubility
SMILES: O=C(O)Cc1cccc(-c2cc(CCCCCCc3ccc(O[C@H]4O[C@H](CO)[C@@H](O)[C@H](O)[C@@H]4O)c(-c4cccc(CC(=O)O)c4)c3)ccc2O[C@H]2O[C@H](CO)[C@@H](O)[C@H](O)[C@@H]2O)c1 [FORM 1, 1,6-Bis [3-(3-carboxymethylphenyl)-4-(2-α-D-mannopyranosyloxy)-phenyl] hexane]

- Solubility in water [1]: 15 mg/L (≈ 0.0174 mM)
- Solubility in PEG 300 (Polyethylene glycol 300) [2, 3]: 102 mg/mL (≈ 118 mM)
- Solubility in Triacetin (glycerin triacetate) [2, 4]: 0.0083 mg/mL (≈ 0.00962 mM)
- Solubility in EtOH (Ethanol) [2, 5]: 4.2 mg/mL (≈ 4.87 mM)
- Solubility in IPA (Isopropyl alcohol) [2, 6]: 0.52 mg/mL (≈ 0.603 mM)
- Solubility in Propylene Glycol ([2]; propylene glycol, equilibrated at 27° C. for 24 hours with shaking): 104 mg/mL (≈ 121 mM)
SMILES: O=C(O)Cc1cccc(-c2cc(CCCCCCc3ccc(O[C@H]4O[C@H](CO)[C@@H](O)[C@H](O)[C@@H]4O)c(-c4cccc(CC(=O)O)c4)c3)ccc2O[C@H]2O[C@H](CO)[C@@H](O)[C@H](O)[C@@H]2O)c1 [FORM 2, 1,6-Bis [3-(3-carboxymethylphenyl)-4-(2-α-D-mannopyranosyloxy)-phenyl] hexane]

- Solubility in water [1]: 14 mg/L (≈ 0.0162 mM)
SMILES: O=C(O)Cc1cccc(-c2cc(CCCCCCc3ccc(O[C@H]4O[C@H](CO)[C@@H](O)[C@H](O)[C@@H]4O)c(-c4cccc(CC(=O)O)c4)c3)ccc2O[C@H]2O[C@H](CO)[C@@H](O)[C@H](O)[C@@H]2O)c1 [FORM 3, 1,6-Bis [3-(3-carboxymethylphenyl)-4-(2-α-D-mannopyranosyloxy)-phenyl] hexane]

- Solubility in PEG 300 (Polyethylene glycol 300) ([2]; PEG 300, equilibrated at 27° C. for 24 hours with shaking, listed as 4): 159 mg/mL (≈ 184 mM)
- Solubility in Triacetin (glycerin triacetate) [2, 4]: 0.02 mg/mL (≈ 0.0232 mM)
- Solubility ranking among the FORMS in ethanol (in words) ([2]; ethanol, compared with FORM 1, 2, 4, 6): highest solubility
- Solubility in EtOH (Ethanol) ([2]; ethanol, equilibrated at 27° C. for 24 hours with shaking, listed as 4): 48 mg/mL (≈ 55.6 mM)
- Solubility in IPA (Isopropyl alcohol) ([2]; equilibrated at 27° C. for 24 hours with shaking, listed as 4): 1.2 mg/mL (≈ 1.39 mM)
- Solubility in Propylene Glycol ([2]; propylene glycol, equilibrated at 27° C. for 24 hours with shaking, listed as 4): 165 mg/mL (≈ 191 mM)
SMILES: O=C(O)Cc1cccc(-c2cc(CCCCCCc3ccc(O[C@H]4O[C@H](CO)[C@@H](O)[C@H](O)[C@@H]4O)c(-c4cccc(CC(=O)O)c4)c3)ccc2O[C@H]2O[C@H](CO)[C@@H](O)[C@H](O)[C@@H]2O)c1 [FORM 4, 1,6-Bis [3-(3-carboxymethylphenyl)-4-(2-α-D-mannopyranosyloxy)-phenyl] hexane]

- Solubility ranking among the FORMS in IPA (in words) ([2]; IPA, compared with FORM 1, 2, 4, 6): highest solubility
- Solubility in PEG 300 (Polyethylene glycol 300) ([2]; PEG 300, equilibrated at 27° C. for 24 hours with shaking, listed as 6): 122 mg/mL (≈ 141 mM)
- Solubility in EtOH (Ethanol) ([2]; ethanol, equilibrated at 27° C. for 24 hours with shaking, listed as 6): 20 mg/mL (≈ 23.2 mM)
- Solubility in IPA (Isopropyl alcohol) ([2]; equilibrated at 27° C. for 24 hours with shaking, listed as 6): 27 mg/mL (≈ 31.3 mM)
- Solubility in Propylene Glycol ([2]; propylene glycol, equilibrated at 27° C. for 24 hours with shaking, listed as 6): 170 mg/mL (≈ 197 mM)
SMILES: O=C(O)Cc1cccc(-c2cc(CCCCCCc3ccc(O[C@H]4O[C@H](CO)[C@@H](O)[C@H](O)[C@@H]4O)c(-c4cccc(CC(=O)O)c4)c3)ccc2O[C@H]2O[C@H](CO)[C@@H](O)[C@H](O)[C@@H]2O)c1 [FORM 6, 1,6-Bis [3-(3-carboxymethylphenyl)-4-(2-α-D-mannopyranosyloxy)-phenyl] hexane]
